Columns and labels:
[1] = target: T1, c7 (mouse ATGL containing aa 1–146 of human ATGL) (Mus musculus, UniProt Q8BJ56, A60V/C106S/C97F/G96S/H22Y/I23V/I69F/K7T/N111S/N68K/R109H/S133N/T101V/T146G/T6K/T93I); assay: TAG hydrolase assay, chimeric ATGL variants; format: biochemical, human and mouse; conditions: variant c7, NG-497 (10 μM) or Atglistatin (10 μM)
T1 construct: host or cells: Expi293 cells, cell lysate

[2] = target: T2, Variant c3 containing aa 1–23 of human ATGL (Homo sapiens, UniProt Q96AD5, F69I/F97C/G146T/H109R/I93T/K68N/N133S/S106C/S111N/S158T/S96G/V101T/V60A); assay: TAG hydrolase assay, chimeric ATGL variants; format: biochemical, human and mouse; conditions: variant c3, NG-497 (10 μM) or Atglistatin (10 μM)
T2 construct: host or cells: Expi293 cells, cell lysate
T2 sequence (Q96AD5 1-288 V60A/K68N/F69I/I93T/S96G/F97C/V101T/S106C/H109R/S111N/N133S/G146T/S158T): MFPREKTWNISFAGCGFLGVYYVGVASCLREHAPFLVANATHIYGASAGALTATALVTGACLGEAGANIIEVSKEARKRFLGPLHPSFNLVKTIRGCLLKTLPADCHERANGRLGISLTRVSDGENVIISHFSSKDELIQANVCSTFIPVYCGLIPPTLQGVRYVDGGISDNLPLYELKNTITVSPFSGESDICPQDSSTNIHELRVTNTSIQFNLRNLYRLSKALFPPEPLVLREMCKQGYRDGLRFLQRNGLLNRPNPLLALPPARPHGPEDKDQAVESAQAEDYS

T1 sequence (Q8BJ56 1-288 with the stated changes limits assumed): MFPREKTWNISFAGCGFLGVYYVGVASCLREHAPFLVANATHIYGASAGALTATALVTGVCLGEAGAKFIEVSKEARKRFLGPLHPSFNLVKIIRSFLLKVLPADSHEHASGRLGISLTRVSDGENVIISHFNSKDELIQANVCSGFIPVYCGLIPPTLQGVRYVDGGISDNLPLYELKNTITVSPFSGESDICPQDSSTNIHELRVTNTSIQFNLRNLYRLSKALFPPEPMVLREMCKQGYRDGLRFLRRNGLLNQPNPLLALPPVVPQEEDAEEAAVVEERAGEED

Structure (SMILES) | inhibition of TAG hydrolase activity [1] | inhibition of TAG hydrolase activity [2]
CCOc1ccc(-c2cc(OC)cc(C(=O)OC(C)C)n2)cc1 [NG-497] | inhibited | 
CN(C)C(=O)Nc1cccc(-c2ccc(N(C)C)cc2)c1 [Atglistatin, reference compound] |  | inhibited
